# Measured values as given in patent US20250345383A1, “INTRANASAL ADMINISTRATION OF POLYSULFIDE” (The General Hospital Corporation, priority 2022, published 2025).
# Key:
# [1] = LC-MS/MS of ^34S-labeled GSSSG and sulfane sulfur species in CNS and plasma after intranasal GS^34SSG; format: in vivo, mouse; conditions: after intranasal administration
# Method: We used LC-MS/MS analysis to measure the amount of ^34S-labeled GSSSG ([^32S2, ^34S]GSSSG) in the CNS and plasma after intranasal administration of GS^34SSG, an isotope of endogenous GSSSG^9,35,36. The ratios of ^34S-labeled sulfane sulfur species ([^32S, ^34S]GSSH, [^32S, ^34S]cysteine hydropersulfide (CysSSH), and [^32S2, ^34S]cysteine trisulfide (CysSSSCys)) to endogenous sulfane sulfur species ([^32S2]GSSH, [^32S2]CysSSH, and […]) were also quantitatively evaluated. At 30 minutes after intranasal administration of 50 mg/kg of GS^34SSG, blood was obtained and four different central nervous tissues were harvested: olfactory bulb and forebrain; brainstem; cervical and thoracic spinal cord, and lumbar spinal cord. A total of 30 mg of each tissue was homogenized in 300 μl of ice-cold methanol solution containing 5 mM β-(4-hydroxyphenyl)ethyl iodoacetamide (HPE-IAM; Santa Cruz Biotechnology, Dallas, TX, USA). Twenty-five μl of plasma was mixed with 75 μl of ice-cold methanol solution containing 5 mM HPE-IAM. Samples were incubated for 20 minutes at 37° C. in the dark. After centrifugation (14,000×g for tissues, 1,870×g for plasma, 10 minutes, 4° C.), the supernatant was separated and diluted with 0.1% formic acid for LC-MS/MS analysis, and the pellet was sonicated to measure the protein concentration by BCA assay. The amount of [^32S2, ^34S]GSSSG was quantified in selective reaction monitoring (SRM) with precursor ion (647.14 m/z), product ion (389.1 m/z), and higher energy collisional dissociation (21 v). The ratios of [^32S, ^34S]GSSH to [^32S2]GSSH, [^32S, ^34S]CysSSH to [^32S2]CysSSH, and [^32S2, ^34S]CysSSSCys to [^32S3]CysSSSCys were calculated from their peak area measured by Dionex UltiMate 3000 RS UPLC-Orbitrap Exploris 480 mass spectrometer (Thermo Fisher Scientific, Waltham, MA, USA). In brief, samples were subjected to the UPLC system with a Hypersil Gold C-18 (100×2.1 mm, 3.0 μm, Thermo Fisher Scientific, Waltham, MA, USA) column and were then eluted by a linear methanol gradient of the mobile phase (0-90%, 15 minutes) in the presence of 0.1% formic acid at a flow rate of 0.2 ml/minute at 40° C. The raw data were analyzed by Compound Discoverer 3.3 software (Thermo Fisher Scientific, Waltham, MA, USA). The molecular weights of these sulfane sulfur species combined with HPE-IAM were determined based on previous reports^9,11,37.
# [2] = test system: ventral horn of lumbar spinal cord; test: Histology of lumbar spinal cord 48 hours after SCI (Nissl, Iba-1, cleaved caspase-3); format: in vivo, mouse
# Method: The lumbar enlargement of the spinal cord was removed 48 hours after surgery and sectioned to […] thickness using a cryotome (CM1850UV; Leica Biosystems, Heidelberger, Germany). Nissl staining was conducted using the Nissl stain kit (VitroVivo Biotech, Rockville, MD, USA) according to the protocol recommended by the manufacturer. Immunohistochemical staining for ionized calcium-binding adaptor molecule 1 (Iba-1) and cleaved caspase-3 was performed as previously described^6,15. The stained sections were examined using an epifluorescence microscope (Nikon Eclipse 80i; Nikon Instruments, Inc., Melville, NY, USA).
# The number of stained cells was counted in one field (0.26 mm^2) under high magnification (200×) in 3 different sections of spinal cord from each mouse by an investigator who was blinded to the identity of the samples. The average number of stained cells was calculated for each mouse. For quantitative analysis of Iba-1 staining, the Iba-1-positive area per one field (0.26 mm^2) under high magnification (200×) in 3 different ventral horn sections for each mouse was calculated using the ImageJ image-processing program (National Institutes of Health, Bethesda, MD, USA). The mean area of Iba-1 staining in the spinal cords of mice in the sham procedure group was set to 1 and the relative amount of Iba-1 staining was determined for each experimental group of mice. Each group included 5 mice.
# [3] = test system: sulfane sulfur in lumbar spinal cord; test: Relative sulfane sulfur levels in lumbar spinal cords after SCI (SSip-1); format: in vivo, mouse; conditions: 48 hours after SCI; intranasal GSSSG; sham set to 1.00±0.30, vehicle alone 0.56±0.13; mean ± SD
# Method: Lumbar spinal cords were harvested 48 hours after surgery and snap-frozen in liquid nitrogen. Spinal cords were subsequently homogenized in Hanks' balanced salt solution (HBSS; Thermo Fisher Scientific, Waltham, MA, USA) containing SSip-1 (5 μM), incubated at room temperature in the dark for 20 minutes, and then subjected to centrifugation. SSip-1 was synthesized and provided by the Hanaoka laboratory^38. The fluorescence intensities of supernatants were measured using a microplate reader (SpectraMax M5; Molecular Devices, San Jose, CA, USA) at the wavelength of λex/λem=491 nm/525 nm. The fluorescence intensities were normalized to the weights of the spinal cord.
# [4] = test system: primary cortical neurons; test: Cell viability after oxygen and glucose deprivation/reoxygenation (OGD/R), primary cortical neurons; format: cell-based, mouse
# Method: Primary cortical neurons were isolated from the cerebral cortices of C57BL/6J mice of both sexes at embryonic day 15, as previously described 39. Primary cortical neurons were maintained at 37° C. in a humidified tissue culture chamber with 5% CO2 and cells were used on day 11 after harvest. […] After reoxygenation, cell viability and cell injury were assessed using crystal violet and lactate dehydrogenase (LDH) assays, as previously described^39.
# [5] = test system: CCL2, CXCL1, IL-1β, IL-6, TNF-α, Bcl-2, Bcl-XL, SQOR and other sulfide-metabolizing enzymes mRNA; test: mRNA levels in lumbar spinal cords 48 hours after surgery (quantitative real-time PCR); format: in vivo, mouse; conditions: intranasal GSSSG after SCI
# Method: Messenger RNA (mRNA) levels were measured as previously described^15 using lumbar spinal cords at 48 hours after surgery. The mRNA levels of C-C motif chemokine 2 (CCL2), C-X-C motif chemokine ligand 1 (CXCL1), interleukin (IL)-1β, IL-6, tumor necrosis factor (TNF)-α, B-cell lymphoma 2 (Bcl-2), B-cell lymphoma-extra large (Bcl-XL), cystathionine beta synthase, cystathionine gamma lyase, 3-mercaptopyruvate sulfurtransferase, sulfide:quinone oxidoreductase (SQOR), ethylmaronic encephalopathy 1, thiosulfate sulfurtransferase, sulfite oxidase, cysteinyl-tRNA synthetase 1, and cysteinyl-tRNA synthetase 2 were standardized to the level of 18S ribosomal RNA using quantitative real-time polymerase chain reaction (7500 Fast Real-Time PCR System, Thermo Fisher Scientific, Waltham, MA, USA).
smiles,measurement,setting,value
"N[C@@H](CCC(=O)N[C@@H](CSSSC[C@H](NC(=O)CC[C@H](N)C(=O)O)C(=O)NCC(=O)O)C(=O)NCC(=O)O)C(=O)O [GSSSG, glutathione trisulfide]",increase of levels of multiple sulfane sulfur species in the lumbar spinal cord,[1],10 to 100 fold
same,number of cleaved caspase-3-positive neurons in lumbar spinal cord,[2]; intranasal GSSSG,prevented the SCI-induced increase
same,number of viable neurons (Nissl stain) in ventral horns of lumbar spinal cord,"[2]; intranasal GSSSG at 0, 8, 23, 32 hours, vs vehicle alone",significant increase in the number of viable neurons
same,Iba-1-positive staining (microglial activation) in lumbar spinal cord,"[2]; intranasal GSSSG, vs vehicle alone",significant reduction in staining for Iba-1
same,relative sulfane sulfur levels in lumbar spinal cord,[3],1.37±0.50
same,cell survival after OGD/R,[4]; GSSSG 100 μM,failed to improve cell survival
same,release of LDH after OGD/R,"[4]; GSSSG at 30 μM or 60 μM, vs vehicle-only treated cells",decreased release of LDH
same,"cell viability after OGD/R, crystal violet assay (GSSSG, GSH, GSSG comparison)","[4]; GSSSG at 30 μM, GSH at 60 μM, GSSG at 30 μM, vs vehicle-only treated cells",improved cell viability
same,"cell viability after OGD/R, crystal violet assay","[4]; GSSSG at 30 μM, vs vehicle-only treated cells",increased cell viability
same,mRNA encoding SQOR in lumbar spinal cord,[5],decreased the level of mRNA encoding SQOR
same,mRNA encoding pro-inflammatory cytokines in lumbar spinal cord,[5],attenuated the upregulation
same,mRNA levels encoding other enzymes that synthesize or metabolize sulfides or persulfides,[5],no effect
same,"mRNA levels of anti-apoptotic genes Bcl-2 and Bcl-XL, vehicle alone vs GSSSG",[5],no significant difference
